According to publication PMC10408569, “Recruitment of hexahydroquinoline as anticancer scaffold targeting inhibition of wild and mutants EGFR (EGFR^WT, EGFR^T790M, and EGFR^L858R)” (Journal of Enzyme Inhibition and Medicinal Chemistry, 2023):

Key:
HCT-15 = assay: NCI-60 anticancer screening (SRB); type: cell-based; details: Homo sapiens; HCT-15, colon cancer; one dose 10 μM; read-out: Growth Inhibition Percentage (GI %)
CAKI-1 = assay: NCI-60 anticancer screening (SRB); type: cell-based; details: Homo sapiens; CAKI-1, renal cancer; one dose 10 μM; read-out: Growth Inhibition Percentage (GI %)
SK-MEL-5 = assay: NCI-60 anticancer screening (SRB); type: cell-based; details: Homo sapiens; SK-MEL-5, melanoma; one dose 10 μM; read-out: Growth Inhibition Percentage (GI %)
T-47D = assay: NCI-60 anticancer screening (SRB); type: cell-based; details: Homo sapiens, T47D, breast cancer, one dose 10 μM, read-out: Growth Inhibition Percentage (GI %)
HL-60(TB) = assay: NCI-60 anticancer screening (SRB); type: cell-based; details: Homo sapiens, leukemia, one dose 10 μM, read-out: Growth Inhibition Percentage (GI %)
TK-10 = assay: NCI-60 anticancer screening (SRB); type: cell-based; details: Homo sapiens; TK-10, renal cancer; one dose 10 μM; read-out: Growth Inhibition Percentage (GI %)
MDA-MB-231 = assay: NCI-60 anticancer screening (SRB); type: cell-based; details: Homo sapiens; MDA-MB-231, breast cancer; one dose 10 μM; read-out: Growth Inhibition Percentage (GI %)
SF-295 = assay: NCI-60 anticancer screening (SRB); type: cell-based; details: Homo sapiens; SF-295, CNS cancer; one dose 10 μM; read-out: Growth Inhibition Percentage (GI %)
SNB-19 = assay: NCI-60 anticancer screening (SRB); type: cell-based; details: Homo sapiens; SNB-19, CNS cancer; one dose 10 μM; read-out: Growth Inhibition Percentage (GI %)
NCI 60 cancer cell lines = assay: NCI-60 anticancer screening (SRB), whole panel; type: cell-based, human; details: mean across the NCI-60 panel; one dose 10 μM
NCI/ADR-RES = assay: NCI-60 anticancer screening (SRB); type: cell-based; details: Homo sapiens, ovarian cancer, one dose 10 μM, read-out: Growth Inhibition Percentage (GI %)
KM 12 = assay: NCI-60 anticancer screening (SRB); type: cell-based; details: Homo sapiens, KM12; KM 12, colon cancer; one dose 10 μM; read-out: Growth Inhibition Percentage (GI %)
NCI-H522 = assay: NCI-60 anticancer screening (SRB); type: cell-based; details: Homo sapiens; NCI-H522, NSC lung cancer; one dose 10 μM; read-out: Growth Inhibition Percentage (GI %)
HT29 = assay: NCI-60 anticancer screening (SRB); type: cell-based; details: Homo sapiens, HT-29; HT29, colon cancer; one dose 10 μM; read-out: Growth Inhibition Percentage (GI %)
M14 = assay: NCI-60 anticancer screening (SRB); type: cell-based; details: Homo sapiens; M14, melanoma; one dose 10 μM; read-out: Growth Inhibition Percentage (GI %)
UACC-62 = assay: NCI-60 anticancer screening (SRB); type: cell-based; details: Homo sapiens; UACC-62, melanoma; one dose 10 μM; read-out: Growth Inhibition Percentage (GI %)
SF-539 = assay: NCI-60 anticancer screening (SRB); type: cell-based; details: Homo sapiens; SF-539, CNS cancer; one dose 10 μM; read-out: Growth Inhibition Percentage (GI %)
SN 12C = assay: NCI-60 anticancer screening (SRB); type: cell-based; details: Homo sapiens, SN12C; SN 12C, renal cancer; one dose 10 μM; read-out: Growth Inhibition Percentage (GI %)
SNB-75 = assay: NCI-60 anticancer screening (SRB); type: cell-based; details: Homo sapiens; SNB-75, CNS cancer; one dose 10 μM; read-out: Growth Inhibition Percentage (GI %)
HCC-2998 = assay: NCI-60 anticancer screening (SRB); type: cell-based; details: Homo sapiens; HCC-2998, colon cancer; one dose 10 μM; read-out: Growth Inhibition Percentage (GI %)
SK-MEL-28 = assay: NCI-60 anticancer screening (SRB); type: cell-based; details: Homo sapiens; SK-MEL-28, melanoma; one dose 10 μM; read-out: Growth Inhibition Percentage (GI %)
SF-268 = assay: NCI-60 anticancer screening (SRB); type: cell-based; details: Homo sapiens; SF-268, CNS cancer; one dose 10 μM; read-out: Growth Inhibition Percentage (GI %)
A549/ATCC = assay: NCI-60 anticancer screening (SRB); type: cell-based; details: Homo sapiens; A549/ATCC, NSC lung cancer; one dose 10 μM; read-out: Growth Inhibition Percentage (GI %)
786-0 = assay: NCI-60 anticancer screening (SRB); type: cell-based; details: Homo sapiens; 786-0, renal cancer; one dose 10 μM; read-out: Growth Inhibition Percentage (GI %)
RPMI-8226 = assay: NCI-60 anticancer screening (SRB); type: cell-based; details: Homo sapiens; RPMI-8226, leukemia; one dose 10 μM; read-out: Growth Inhibition Percentage (GI %)
MDA-MB-435 = assay: NCI-60 anticancer screening (SRB); type: cell-based; details: Homo sapiens; MDA-MB-435, melanoma; one dose 10 μM; read-out: Growth Inhibition Percentage (GI %)
HOP-62 = assay: NCI-60 anticancer screening (SRB); type: cell-based; details: Homo sapiens; HOP-62, NSC lung cancer; one dose 10 μM; read-out: Growth Inhibition Percentage (GI %)
RXF 393 = assay: NCI-60 anticancer screening (SRB); type: cell-based; details: Homo sapiens; RXF 393, renal cancer; one dose 10 μM; read-out: Growth Inhibition Percentage (GI %)
DU-145 = assay: NCI-60 anticancer screening (SRB); type: cell-based; details: Homo sapiens; DU-145, prostate cancer; one dose 10 μM; read-out: Growth Inhibition Percentage (GI %)
NCI-H322M = assay: NCI-60 anticancer screening (SRB); type: cell-based; details: Homo sapiens, NSC lung cancer, one dose 10 μM, read-out: Growth Inhibition Percentage (GI %)
EKVX = assay: NCI-60 anticancer screening (SRB); type: cell-based; details: Homo sapiens, NSC lung cancer, one dose 10 μM, read-out: Growth Inhibition Percentage (GI %)
NCI-H460 = assay: NCI-60 anticancer screening (SRB); type: cell-based; details: Homo sapiens; NCI-H460, NSC lung cancer; one dose 10 μM; read-out: Growth Inhibition Percentage (GI %)

SMILES	inhibition at 10 µM (HCT-15)	inhibition at 10 µM (CAKI-1)	inhibition at 10 µM (SK-MEL-5)	inhibition at 10 µM (T-47D)	inhibition at 10 µM (HL-60(TB))	inhibition at 10 µM (TK-10)	inhibition at 10 µM (MDA-MB-231)	inhibition at 10 µM (SF-295)	inhibition at 10 µM (SNB-19)	GI % mean (NCI 60 cancer cell lines)	inhibition at 10 µM (NCI/ADR-RES)	inhibition at 10 µM (KM 12)	inhibition at 10 µM (NCI-H522)	inhibition at 10 µM (HT29)	inhibition at 10 µM (M14)	inhibition at 10 µM (UACC-62)	inhibition at 10 µM (SN 12C)	inhibition at 10 µM (SNB-75)	inhibition at 10 µM (HCC-2998)	inhibition at 10 µM (SK-MEL-28)	also measured
CCOC(=O)C1=C(N)N(c2ccc(Cl)cc2)C2=C(C(=O)CC(C)(C)C2)C1c1cccnc1 (racemic) [12f, (±)-Ethyl 2-amino-1–(4-chlorophenyl)-7,7-dimethyl-5-oxo-4-(pyridin-3-yl)-1,4,5,6,7,8-hexahydroquinoline-3-carboxylate]	< 10%	< 10%	< 10%	25%	< 10%	< 10%	< 10%	< 10%	< 10%	- ((-) = GI % mean less than 10)	11%	< 10%	< 10%	< 10%	< 10%	< 10%	< 10%	21%	< 10%	< 10%	inhibition at 10 µM (SF-539): 12%; inhibition at 10 µM (SF-268): < 10%; inhibition at 10 µM (A549/ATCC): 15%; inhibition at 10 µM (786-0): < 10%; inhibition at 10 µM (RPMI-8226): 12%; inhibition at 10 µM (MDA-MB-435): < 10%; inhibition at 10 µM (HOP-62): < 10%; inhibition at 10 µM (RXF 393): < 10%; inhibition at 10 µM (DU-145): < 10%; inhibition at 10 µM (NCI-H322M): < 10%; inhibition at 10 µM (EKVX): < 10%; inhibition at 10 µM (NCI-H460): < 10%
CCOC(=O)C1=C(N)N(c2ccc(Cl)cc2)C2=C(C(=O)CC(C)(C)C2)C1c1ccc(OC)cc1 (racemic) [8h, (±)-Ethyl 2-amino-1–(4-chlorophenyl)-4–(4-methoxyphenyl)-7,7-dimethyl-5-oxo-1,4,5,6,7,8-hexahydroquinoline-3-carboxylate]	< 10%	< 10%	< 10%	< 10%	< 10%	< 10%	< 10%	< 10%	< 10%	- ((-) = GI % mean less than 10)	< 10%	< 10%	< 10%	< 10%	< 10%	< 10%	< 10%	< 10%	< 10%	< 10%	inhibition at 10 µM (SF-539): < 10%; inhibition at 10 µM (SF-268): < 10%; inhibition at 10 µM (A549/ATCC): < 10%; inhibition at 10 µM (786-0): < 10%; inhibition at 10 µM (RPMI-8226): < 10%; inhibition at 10 µM (MDA-MB-435): < 10%; inhibition at 10 µM (HOP-62): < 10%; inhibition at 10 µM (RXF 393): < 10%; inhibition at 10 µM (DU-145): < 10%; inhibition at 10 µM (NCI-H322M): < 10%; inhibition at 10 µM (EKVX): < 10%; inhibition at 10 µM (NCI-H460): < 10%
CCOC(=O)C1=C(N)N(c2ccc(C)cc2)C2=C(C(=O)CC(C)(C)C2)C1c1cccnc1 (racemic) [12e, (±)-Ethyl 2-amino-7,7-dimethyl-1–(4-methylphenyl)-5-oxo-1-phenyl-4-(pyrdin-3-yl)-1,4,5,6,7,8-hexahydroquinoline-3-carboxylate]	< 10%	< 10%	< 10%	< 10%	< 10%	< 10%	< 10%	< 10%	< 10%	- ((-) = GI % mean less than 10)	< 10%	< 10%	< 10%	< 10%	< 10%	14%	< 10%	14%	< 10%	< 10%	inhibition at 10 µM (SF-539): < 10%; inhibition at 10 µM (SF-268): < 10%; inhibition at 10 µM (A549/ATCC): < 10%; inhibition at 10 µM (786-0): < 10%; inhibition at 10 µM (RPMI-8226): 11%; inhibition at 10 µM (MDA-MB-435): < 10%; inhibition at 10 µM (HOP-62): < 10%; inhibition at 10 µM (RXF 393): < 10%; inhibition at 10 µM (DU-145): < 10%; inhibition at 10 µM (NCI-H322M): < 10%; inhibition at 10 µM (EKVX): < 10%; inhibition at 10 µM (NCI-H460): < 10%
CCOC(=O)C1=C(N)N(c2ccc(C)cc2)C2=C(C(=O)CC(C)(C)C2)C1c1ccc([N+](=O)[O-])cc1 (racemic) [8j, (±)-Ethyl 2-amino-7,7-dimethyl-1–(4-methylphenyl)-4–(4-nitrophenyl)-5-oxo-1,4,5,6,7,8-hexahydroquinoline-3-carboxylate]	< 10%	< 10%	< 10%	< 10%	< 10%	< 10%	< 10%	< 10%	< 10%	- ((-) = GI % mean less than 10)	< 10%	< 10%	< 10%	< 10%	< 10%	13%	< 10%	< 10%	< 10%	< 10%	inhibition at 10 µM (SF-268): < 10%; inhibition at 10 µM (A549/ATCC): < 10%; inhibition at 10 µM (786-0): < 10%; inhibition at 10 µM (RPMI-8226): < 10%; inhibition at 10 µM (MDA-MB-435): < 10%; inhibition at 10 µM (HOP-62): < 10%; inhibition at 10 µM (RXF 393): < 10%; inhibition at 10 µM (DU-145): < 10%; inhibition at 10 µM (NCI-H322M): < 10%; inhibition at 10 µM (EKVX): < 10%; inhibition at 10 µM (NCI-H460): < 10%
